Measurements from patent US12036225B2, “Use of ibezapolstat to promote microbiome health” (Acurx Pharmaceuticals, Inc., priority 2021, dated 2024).

Legend:
[1] = Phase 2a trial: plasma and fecal concentrations (PK); format: in vivo, human; settings: CDI patients
Method: Plasma levels were drawn at 2 and 4 hours after the first daily ibezapolstat administration on days 1, 5, and 10. Fecal samples were collected at baseline and daily during days 1-10 of ibezapolstat receipt. Plasma and fecal concentrations were assayed by AltaSciences (Laval, Quebec, Canada) and PK analyses were performed by Learn and Confirm Inc. (Montreal, Quebec, Canada).

C. difficile infection [2] = test: Phase 2a open-label trial in CDI patients: clinical cure and sustained clinical cure; format: in vivo, human; settings: 10 CDI patients
Method: Phase 2a of this trial was an open-label cohort of 10 subjects from study centers in the United States. In this cohort, 10 patients with diarrhea caused by mild/moderate C. difficile diagnosed via toxin EIA+ were treated with ibezapolstat 450 mg orally, twice daily for 10 days. All patients were followed for recurrence for 28±2 days. Stool was collected during course of therapy and at follow up. Patient fecal samples were evaluated for C. difficile culture and microbiome changes.
The primary efficacy outcome measure was clinical cure at EOT defined as resolution of diarrhea in the 24-hour period preceding EOT and maintained for at least 48 hours post EOT. SCC was defined as clinical cure with no recurrence of CDI within 28 (±2) days after EOT.
An intent-to-treat analysis of patients receiving at least one dose of ibezapolstat was conducted. Descriptive statistics were calculated for efficacy, safety/tolerability, and PK data generated using SAS version 9.4 software (SAS Institute, Inc Cary, NC, USA). Microbiome summary plots and data visualization was prepared using R software version 4.1.1 (R Core Team 2021, Vienna, Austria). (R Core Team (2013). R: A language and environment for statistical computing. R Foundation for Statistical Computing, Vienna, Austria.) Alpha diversity for each sample was assessed with the VeganR package version 2.4-2 using the Shannon Diversity Index and Inverse Simpson Index. Differences in alpha diversity (Shannon Diversity and Inverse Simpson Indexes) and bile acids at baseline compared to during or after therapy were compared using linear regression models. Proportional changes of bacterial taxa over the 10-day dosing interval were calculated using linear regression models for taxa with at least a one percent proportional change during the study time period. A p value <0.05 was considered significant.

[3] = Phase 2a trial: safety assessments (adverse events); format: in vivo, human
Method: Safety evaluations included AE assessment, physical examination, vital signs, clinical laboratory tests (chemistry, hematology, and urinalysis), and electrocardiography. Safety endpoints for all subjects were recorded including nature, frequency, and severity of AEs. AEs were assessed at each visit beginning from the time of enrollment and classified according to the Medical Dictionary for Regulatory Activities (MedDRA version 15.0). AE severity (mild, moderate, or severe) and causality (unrelated, possibly related, or probably related to the study medication) were assessed by the investigator at each site.

C. difficile = test: Phase 2a trial: stool culture for C. difficile on CCFA; format: in vivo, Clostridioides difficile; settings: CDI patients
Method: Stool samples were cultured for C. difficile growth on a selective cycloserine-cefoxitin fructose agar (CCFA) at 37° C. under anaerobic conditions for 48 hours. (Gonzales-Luna). Isolates were determined to be C. difficile based on growth and morphology and confirmed by PCR for C. difficile toxin and tpi genes. C. difficile was strain typed using a PCR-based ribotyping method as previously described. (Gonzales-Luna A J, Carlson T J, Dotson K M, et al. PCR ribotypes of Clostridioides difficile across Texas from 2011 to 2018 including emergence of ribotype 255. Emerg Microbes Infect 2020; 9(1): 341-7.) Minimum inhibitory concentrations (MICs) were determined for ibezapolstat by broth microdilution in 0.1% sodium taurocholate Brain Heart Infusion (BHI) media. (Begum K, Basseres E, Miranda J, et al. In Vitro Activity of Omadacycline, a New Tetracycline Analog, and Comparators against Clostridioides difficile. Antimicrob Agents Chemother 2020; 64(8).)

C. difficile infection [4] = settings: literature (Gonzales-Luna); cited from earlier work
[5] = ibezapolstat 450 mg orally twice daily 10 days
[6] = CDI patients receiving ibezapolstat

In the case of `O=c1[nH]c(NCc2ccc(Cl)c(Cl)c2)nc2ncn(CCN3CCOCC3)c12` [Ibezapolstat, 2-((3,4-dichlorobenzyl)amino)-7-(2-morpholinoethyl)-1,7-dihydro-6H-purin-6-one], the “stool samples with detectable concentration on day 38” value [1] is reported as “Three of 4”, the “plasma concentrations, upper limit” value ([1]; 450 mg twice daily) is reported as at most 1000 ng/mL and the “stool concentration, days 8-10 of therapy” value ([1]; 450 mg twice daily) is reported as > 1,000 μg/g stool. The concentration at 2 h ([1]; human, plasma, oral, 450 mg twice daily, read-out: plasma levels 2-hour post-dose) was 234 to 299 ng/mL, the concentration at 4 h ([1]; human, plasma, oral, 450 mg twice daily, read-out: plasma levels 4-hour postdose) was 373 to 578 ng/mL and the concentration at 2 days after EOT ([1]; human, stool, oral, 450 mg, read-out: stool concentration two days after EOT) was 535000 ± 748000 ng/g. The concentration at 38 day ([1]; human, stool, oral, 450 mg, samples with detectable concentration) was 136000 ± 161000 ng/g, the concentration at 3 day of therapy ([1]; human, stool, oral, 450 mg twice daily) was 416000 ± 494000 ng/g and the “no recurrences of infection” value (C. difficile infection [2]; followed 28±2 days) was 100%. For the same compound, the “clinical cure at day 12” value (C. difficile infection [2]; [5]) was 100%, the infection eliminated (C. difficile infection [2]; [5]) was 100% and the “sustained clinical cure at day 38” value (C. difficile infection [2]; [5]) was 100%. For the same compound, the “number of AEs reported” value ([3]; 10 CDI patients) was “Seven”, the “serious AEs” value ([3]; 10 CDI patients) was “None” and the “adverse event profile, in words” value ([3]; 10 CDI patients, ibezapolstat 450 mg twice daily 10 days) was “acceptable adverse event profile”. For the same compound, the “Adverse event Headache: Action taken with study medication” value [3, 6] was “No”, the “Adverse event Headache: Frequency” value [3, 6] was “Intermittent” and the “Adverse event Headache: Intensity” value [3, 6] was “Mild”. The “Adverse event Headache: Outcome” value [3, 6] was “Resolved”, the “Adverse event Headache: Relationship to study drug” value [3, 6] was “Unrelated” and the “Adverse event Headache: Serious AE” value [3, 6] was “No”. For the same compound, the “Adverse event Headache: Treatment required” value [3, 6] was “No”, the “Adverse event Intertriginous Candidiasis: Action taken with study medication” value [3, 6] was “No” and the “Adverse event Intertriginous Candidiasis: Frequency” value [3, 6] was “Continuous”. For the same compound, the “Adverse event Intertriginous Candidiasis: Intensity” value [3, 6] was “Moderate”, the “Adverse event Intertriginous Candidiasis: Outcome” value [3, 6] was “Resolved” and the “Adverse event Intertriginous Candidiasis: Relationship to study drug” value [3, 6] was “Unrelated”. The “Adverse event Intertriginous Candidiasis: Serious AE” value [3, 6] was “No”, the “Adverse event Intertriginous Candidiasis: Treatment required” value [3, 6] was “Yes” and the “Adverse event Migraine headache: Action taken with study medication” value [3, 6] was “No”. The “Adverse event Migraine headache: Frequency” value [3, 6] was “Continuous”, the “Adverse event Migraine headache: Intensity” value [3, 6] was “Severe” and the “Adverse event Migraine headache: Outcome” value [3, 6] was “Resolved”. The “Adverse event Migraine headache: Relationship to study drug” value [3, 6] was “Unrelated”, the “Adverse event Migraine headache: Serious AE” value [3, 6] was “No” and the “Adverse event Migraine headache: Treatment required” value [3, 6] was “Yes”. The “Adverse event Nausea: Action taken with study medication” value [3, 6] was “No”, the “Adverse event Nausea: Frequency” value [3, 6] was “Intermittent” and the “Adverse event Nausea: Intensity” value [3, 6] was “Moderate”. For the same compound, the “Adverse event Nausea: Outcome” value [3, 6] was “Resolved”, the “Adverse event Nausea: Relationship to study drug” value [3, 6] was “Probably” and the “Adverse event Nausea: Serious AE” value [3, 6] was “No”. For the same compound, the “Adverse event Nausea: Treatment required” value [3, 6] was “No”, the “Adverse event Vomiting: Action taken with study medication” value [3, 6] was “No” and the “Adverse event Vomiting: Frequency” value [3, 6] was “Once”. For the same compound, the “Adverse event Vomiting: Intensity” value [3, 6] was “Moderate”, the “Adverse event Vomiting: Outcome” value [3, 6] was “Resolved” and the “Adverse event Vomiting: Relationship to study drug” value [3, 6] was “Probably”. The “Adverse event Vomiting: Serious AE” value [3, 6] was “No”, the “Adverse event Vomiting: Treatment required” value [3, 6] was “Yes” and the “patients with AEs” value ([3]; of the 10 patients) was 4. For the same compound, the “C. difficile growth from stool samples after baseline” value (C. difficile; all sampling days other than baseline, 7-9 samples/day) was “did not grow C. difficile” and the “Eradication of colonic C. difficile” value (C. difficile; ibezapolstat 450 mg twice daily) was “complete eradication of colonic C. difficile by day three”.

For `CN[C@H](CC(C)C)C(=O)N[C@H]1C(=O)N[C@@H](CC(N)=O)C(=O)N[C@H]2C(=O)N[C@H]3C(=O)N[C@H](C(=O)N[C@H](C(=O)O)c4cc(O)cc(O)c4-c4cc3ccc4O)[C@H](O)c3ccc(c(Cl)c3)Oc3cc2cc(c3O[C@@H]2O[C@H](CO)[C@@H](O)[C@H](O)[C@H]2O[C@H]2C[C@](C)(N)[C@H](O)[C@H](C)O2)Oc2ccc(cc2Cl)[C@H]1O` [Vancomycin, vancomycin], the “patients having a recurring CDI after treatment is discontinued” value (C. difficile infection [4]) is listed as 20-25%.

In the case of `CCc1c(Cl)c(O)c(Cl)c(O)c1C(=O)O[C@H]1[C@H](O)[C@H](OC)[C@H](OC/C2=C\C=C\C[C@H](O)/C(C)=C/[C@H](CC)[C@@H](O[C@@H]3OC(C)(C)[C@@H](OC(=O)C(C)C)[C@H](O)[C@@H]3O)/C(C)=C/C(C)=C/C[C@@H]([C@@H](C)O)OC2=O)O[C@@H]1C` [fidaxomicin], the “CDI recurrence rates lower than other treatments” value (C. difficile infection [4]) is given as “approximately 50%”.
